Measured values reported in patent US10105343B2, “Cannabis based compositions and methods of treating hypertension” (KUBBY PATENT AND LICENSES, LIMITED LIABILITY COMPANY, priority 2010, dated 2018).

Test system: hypertension
Experiment: Inventor's own case: control of hypertension in adrenal cancer (anecdotal patient report)
Assay type: in vivo, human
Settings: single patient (the inventor)
From the text: In 1999, this inventor's doctors told them that after completing extensive medical tests at the University of Southern California's School of Medicine their prognosis was poor. According to Dr. Vincent DeQuattro, a USC professor and world authority on adrenal cancer, their blood contained deadly levels of adrenaline, more than enough to kill anyone else.
Nearly everyone else who has ever had the malignant form of the inventor's disease has died within a few years. The inventor credits their survival, now 35 years since their diagnosis, to medical marijuana, something DeQuattro considered a “medical miracle.” Dr. DeQuattro has written that the inventor could suffer a heart attack or stroke if deprived of marijuana and that no other form of therapy is available.
Despite the seriousness and dramatic dangers of their disease, a person was arrested and jailed for using the only medicine that worked for them. During their first few days of incarceration, they experienced excruciating pain, a vicious high blood-pressure crisis, passed blood in their urine and over a period of 60 days, and lost 33 pounds.
That's when […] started to experiment with lozenges to see if […] could create a natural cannabis based lozenge that would control hypertension, without undesirable side effects.
This led the Inventor to the development that is taught in this invention.

SMILES: CCCCCc1cc(O)c2c(c1)OC(C)(C)[C@@H]1CCC(C)=C[C@@H]21 [Marinol, tetrahydrocannabinol]
- undesirable side effects: constant nausea
- controlling hypertension (adrenal cancer with deadly adrenaline levels): extremely effective
- substitute for whole cannabis in treating the inventor's otherwise fatal disease (during incarceration): acceptable, if not ideal, substitute
